{"source": "patent US20130203718A1", "about": "(priority 2010, published 2013)", "target": "T1, hPRB (Homo sapiens, UniProt P06401)", "T1 sequence (P06401 1-933)": "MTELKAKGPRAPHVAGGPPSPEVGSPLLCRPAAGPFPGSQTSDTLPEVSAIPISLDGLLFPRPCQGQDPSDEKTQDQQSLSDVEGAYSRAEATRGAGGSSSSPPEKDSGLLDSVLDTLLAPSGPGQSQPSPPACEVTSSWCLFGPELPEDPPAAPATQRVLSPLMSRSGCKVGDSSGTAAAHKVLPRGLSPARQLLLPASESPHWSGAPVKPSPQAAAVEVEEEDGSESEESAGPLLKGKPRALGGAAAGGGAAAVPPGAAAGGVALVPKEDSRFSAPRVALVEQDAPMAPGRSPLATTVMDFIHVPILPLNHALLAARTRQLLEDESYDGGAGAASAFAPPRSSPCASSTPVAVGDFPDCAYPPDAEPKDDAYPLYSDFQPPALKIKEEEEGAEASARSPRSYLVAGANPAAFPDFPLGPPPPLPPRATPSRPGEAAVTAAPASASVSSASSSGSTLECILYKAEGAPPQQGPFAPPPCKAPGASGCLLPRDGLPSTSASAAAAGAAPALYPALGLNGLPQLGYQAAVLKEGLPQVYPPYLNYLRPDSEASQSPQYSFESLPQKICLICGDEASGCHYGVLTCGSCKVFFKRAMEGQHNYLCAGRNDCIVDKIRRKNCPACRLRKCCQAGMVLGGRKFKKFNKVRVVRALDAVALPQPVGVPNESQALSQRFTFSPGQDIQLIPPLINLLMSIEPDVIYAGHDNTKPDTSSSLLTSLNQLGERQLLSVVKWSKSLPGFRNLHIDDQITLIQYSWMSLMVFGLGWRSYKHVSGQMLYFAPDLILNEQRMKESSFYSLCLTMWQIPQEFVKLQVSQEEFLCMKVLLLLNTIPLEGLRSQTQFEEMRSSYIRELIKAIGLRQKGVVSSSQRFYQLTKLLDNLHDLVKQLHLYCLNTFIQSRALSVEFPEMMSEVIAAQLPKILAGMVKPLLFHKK", "test": "PR transactivation assay (GRE2-Luc) in HEK293T cells transiently expressing hPRB", "assay_type": "cell-based", "design": "expressed in transfected cells; host or cells: HEK 293T", "conditions": "APRn 1 μM", "outline": "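HEK293T cells transiently transfected by calcium phosphate with human PRB, GRE2-Luc reporter and β-gal control, grown in dextran-charcoal-treated FCS. Luciferase measured in lysates; agonist efficacy at 1 μM compound as ratio of luciferase activities ×100, antagonist efficacy as 100 minus that ratio; mean±SEM of 3-5 experiments.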", "key": {"[1]": {"conditions": "series 2-4, stated for both HEK293T and MDA-MB-231 iPRAB cells, FIGS. 3-8"}, "[2]": {"conditions": "series 1 (no C3 substituent), HEK293T, FIG. 1"}}, "note": "“Also recorded” adds a separate entry of the source."}
{"smiles": "CC(=O)[C@H]1CC[C@H]2[C@@H]3CC=C4C[C@@H](F)CC[C@]4(C)[C@H]3CC[C@]12C", "note": "[APR-16, 3β-Fluoropregn-5-en-20-one]", "values": [{"measurement": "hPRB agonist/antagonist character (in words)", "setting": "[1]", "result": "efficient hPRB antagonists; also recorded: agonist activity of this molecule is completely abolished"}]}
{"smiles": "CC#C[C@]1(O)CCC2C3CC[C@H]4CCCC[C@]4(C)C3CC[C@@]21C", "note": "(stereo partly drawn) [APR-42, 17α-(1-Propynyl)-5α-androstan-17β-ol]", "values": [{"measurement": "hPRB agonist/antagonist character (in words)", "setting": "[2]", "result": "full antagonists"}]}
{"smiles": "C[C@]12CCC3C(CC=C4C[C@@H](F)CC[C@@H]43)C1CCC2=O", "note": "(stereo partly drawn) [APR-47, 3β-Fluoro-19-nor-androst-5-en-17-one]", "values": [{"measurement": "hPRB agonist/antagonist character (in words)", "setting": "[1]", "result": "efficient hPRB antagonists"}]}
{"smiles": "CC#C[C@]1(O)CCC2C3CC[C@H]4CCCC[C@@H]4C3CC[C@@]21C", "note": "(stereo partly drawn) [APR-54, 17α-(1-Propynyl)-19-nor-5-androstan-17β-ol]", "values": [{"measurement": "hPRB agonist/antagonist character (in words)", "setting": "[2]", "result": "full antagonists"}]}
